Assays:
Assay type in all cases: in vivo
Echinochloa crus-galli = assay: Paddy herbicidal activity test; details: irrigated pot, treated at 3.5 leaf stage of Echinochloa crus-galli, 30 days
Description: (§1) Rice paddy soil was filled into a 1/10000 are pot followed by the addition of suitable amounts of water and chemical fertilizer, kneading, seeding with Echinochloa crus-galli, Monochoria vaginalis and Scirpus juncoides and maintaining in an irrigated state at a water depth of 3 cm. Wettable powders of Target Compound (I) shown in Table 1 prepared in compliance with the preparation examples were diluted with a suitable amount of water, rice plants in the 2.0 leaf stage were transplanted during 3.5 leaf stage of Echinochloa crus-galli, and treated by dropping in chemical in the prescribed amount per 10 are using a pipette. After treating for 30 days in a glass greenhouse at an average atmospheric temperature of […], the herbicidal efficacy thereof was investigated. Evaluation of herbicidal efficacy was carried out by comparing growth inhibition rate (%) with an untreated group, while evaluation of chemical damage was carried out by comparing growth inhibition rate (%) with the state of a complete eradication group, and were evaluated at 11 levels indicated below. • 0 (exponent): 0% to less than 10% (growth inhibition rate) • 1: 10% to less than 20% • 2: 20% to less than 30% • 3: 30% to less than 40% • 4: 40% to less than 50% • 5: 50% to less than 60% • 6: 60% to less than 70% • 7: 70% to less than 80% • 8: 80% to less than 90% • 9: 90% to less than 100% • 10: 100%

Monochoria vaginalis = assay: Paddy herbicidal activity test; details: irrigated pot, treated at 3.5 leaf stage of Echinochloa crus-galli, 30 days
Description: as §1

Scirpus juncoides = assay: Paddy herbicidal activity test; details: irrigated pot, treated at 3.5 leaf stage of Echinochloa crus-galli, 30 days
Description: as §1

Oryza sativa = assay: Paddy herbicidal activity test, chemical damage to transplanted rice; details: rice transplanted in 2.0 leaf stage, 30 days
Description: as §1

Amaranthus retroflexus [1] = assay: Farming soil treatment test; details: soil surface spray prior to weed growth, 30 days, 30° C.
Description: (§2) Evaluation of herbicidal efficacy was carried out by comparing growth inhibition rate (%) with an untreated group, while evaluation of chemical damage was carried out by comparing growth inhibition rate (%) with the state of a complete eradication group, and were evaluated at 11 levels indicated below. • 0 (exponent): 0% to less than 10% (growth inhibition rate) • 1: 10% to less than 20% • 2: 20% to less than 30% • 3: 30% to less than 40% • 4: 40% to less than 50% • 5: 50% to less than 60% • 6: 60% to less than 70% • 7: 70% to less than 80% • 8: 80% to less than 90% • 9: 90% to less than 100% • 10: 100% Field soil was filled into a 1/6000 are pot followed by seeding with Digitaria ciliaris, Chenopodium album and Amraranthus retroflexus and covering with soil. Wettable powders of compounds of formula (I) shown in Table 1 prepared in compliance with the preparation examples were diluted with water to the prescribed amount of chemical and uniformly sprayed onto each soil surface layer using 100 liters of sprayed water per 10 are prior to weed growth following seeding. After treating for 30 days in a glass greenhouse at an average atmospheric temperature of 30° C., the herbicidal efficacy thereof was investigated. Evaluation of herbicidal efficacy was carried out in the same manner as the above-mentioned Test Example 1,

Chenopodium album [2] = assay: Farming soil treatment test; details: soil surface spray prior to weed growth, 30 days, 30° C.
Description: as §2

Digitaria ciliaris [3] = assay: Farming soil treatment test; details: soil surface spray prior to weed growth, 30 days, 30° C.
Description: as §2

Amaranthus retroflexus [4] = assay: Weed foliar treatment test (Test 3); details: foliar spray at 1.0 to 2.0 leaf stage of Digitaria ciliaris, 3 weeks, 25° C.
Description: (§3) Evaluation of herbicidal efficacy was carried out by comparing growth inhibition rate (%) with an untreated group, while evaluation of chemical damage was carried out by comparing growth inhibition rate (%) with the state of a complete eradication group, and were evaluated at 11 levels indicated below. • 0 (exponent): 0% to less than 10% (growth inhibition rate) • 1: 10% to less than 20% • 2: 20% to less than 30% • 3: 30% to less than 40% • 4: 40% to less than 50% • 5: 50% to less than 60% • 6: 60% to less than 70% • 7: 70% to less than 80% • 8: 80% to less than 90% • 9: 90% to less than 100% • 10: 100% Soil was filled into a 1/6000 are pot followed by seeding with Digitaria ciliaris, Chenopodium album and Amaranthus retroflexus, covering with soil, and cultivating in a glass greenhouse at an average atmospheric temperature of 25° C. Wettable powders of Target Compound (I) shown in Table 1 prepared in compliance with the preparation examples were diluted with water to the prescribed amount of chemical and uniformly sprayed onto the weeds using 150 liters of sprayed water per 10 are when Digitaria ciliaris had grown to the 1.0 to 2.0 leaf stage. After treating for 3 weeks in a glass greenhouse at an average atmospheric temperature of 25° C., the herbicidal efficacy thereof was investigated. Evaluation of herbicidal efficacy was carried out in the same manner as the above-mentioned Test Example 1.

Chenopodium album [5] = assay: Weed foliar treatment test (Test 3); details: foliar spray at 1.0 to 2.0 leaf stage of Digitaria ciliaris, 3 weeks, 25° C.
Description: as §3

Digitaria ciliaris [6] = assay: Weed foliar treatment test (Test 3); details: foliar spray at 1.0 to 2.0 leaf stage of Digitaria ciliaris, 3 weeks, 25° C.
Description: as §3

Digitaria ciliaris [7] = assay: Weed foliar treatment test (Test 4, higher leaf stage); details: 10 g a.i./10a; foliar spray at 4.0 to 5.0 leaf stage of Digitaria ciliaris (plant height 10 cm to 15 cm); 20 days, 25° C.
Description: (§4) Evaluation of herbicidal efficacy was carried out by comparing growth inhibition rate (%) with an untreated group, while evaluation of chemical damage was carried out by comparing growth inhibition rate (%) with the state of a complete eradication group, and were evaluated at 11 levels indicated below. • 0 (exponent): 0% to less than 10% (growth inhibition rate) • 1: 10% to less than 20% • 2: 20% to less than 30% • 3: 30% to less than 40% • 4: 40% to less than 50% • 5: 50% to less than 60% • 6: 60% to less than 70% • 7: 70% to less than 80% • 8: 80% to less than 90% • 9: 90% to less than 100% • 10: 100% Field soil was filled into a 1/4500 are pot followed by seeding with Digitaria ciliaris and Galinsoga parviflora, covering with soil and cultivating in a glass greenhouse at an average atmospheric temperature of 25° C. Wettable powders of Target Compound (I) shown, in Table 1 prepared in compliance with the preparation examples were diluted with water to the prescribed amount of chemical and uniformly sprayed onto the weeds using 100 liters of sprayed water per 10 are when Digitaria ciliaris had grown to the 4.0 to 5.0 leaf stage (plant height: 10 cm to 15 cm). After treating for 20 days in a glass greenhouse at an average atmospheric temperature of 25° C., the herbicidal efficacy thereof was investigated. Evaluation of herbicidal efficacy was carried out in the same manner as the above-mentioned Test Example 1.

Galinsoga parviflora = assay: as above; details: 10 g a.i./10a; foliar spray at 4.0 to 5.0 leaf stage of Digitaria ciliaris; 20 days, 25° C.
Description: as §4

| Compound | herbicidal efficacy (growth inhibition rate level), Echinochloa crus-galli (Echinochloa crus-galli; 1 g a.i./10a) | herbicidal efficacy (growth inhibition rate level), Echinochloa crus-galli (Echinochloa crus-galli; 5 g a.i./10a) | herbicidal efficacy (growth inhibition rate level), Monochoria vaginalis (Monochoria vaginalis; 1 g a.i./10a) | herbicidal efficacy (growth inhibition rate level), Monochoria vaginalis (Monochoria vaginalis; 5 g a.i./10a) | herbicidal efficacy (growth inhibition rate level), Scirpus juncoides (Scirpus juncoides; 1 g a.i./10a) | herbicidal efficacy (growth inhibition rate level), Scirpus juncoides (Scirpus juncoides; 5 g a.i./10a) | chemical damage (growth inhibition rate level), Oryza sativa (Oryza sativa; 1 g a.i./10a) | chemical damage (growth inhibition rate level), Oryza sativa (Oryza sativa; 5 g a.i./10a) | herbicidal efficacy (growth inhibition rate level), Amaranthus retroflexus (Amaranthus retroflexus [1]; 5 g a.i./10a) | herbicidal efficacy (growth inhibition rate level), Amaranthus retroflexus (Amaranthus retroflexus [1]; 10 g a.i./10a) | herbicidal efficacy (growth inhibition rate level), Chenopodium album (Chenopodium album [2]; 5 g a.i./10a) | herbicidal efficacy (growth inhibition rate level), Chenopodium album (Chenopodium album [2]; 10 g a.i./10a) | herbicidal efficacy (growth inhibition rate level), Digitaria ciliaris (Digitaria ciliaris [3]; 5 g a.i./10a) | herbicidal efficacy (growth inhibition rate level), Digitaria ciliaris (Digitaria ciliaris [3]; 10 g a.i./10a) | herbicidal efficacy (growth inhibition rate level), Amaranthus retroflexus (Amaranthus retroflexus [4]; 5 g a.i./10a) | herbicidal efficacy (growth inhibition rate level), Amaranthus retroflexus (Amaranthus retroflexus [4]; 10 g a.i./10a) | herbicidal efficacy (growth inhibition rate level), Chenopodium album (Chenopodium album [5]; 5 g a.i./10a) | herbicidal efficacy (growth inhibition rate level), Chenopodium album (Chenopodium album [5]; 10 g a.i./10a) | herbicidal efficacy (growth inhibition rate level), Digitaria ciliaris (Digitaria ciliaris [6]; 5 g a.i./10a) | herbicidal efficacy (growth inhibition rate level), Digitaria ciliaris (Digitaria ciliaris [6]; 10 g a.i./10a) | further results |
| --- | --- | --- | --- | --- | --- | --- | --- | --- | --- | --- | --- | --- | --- | --- | --- | --- | --- | --- | --- | --- | --- |
| N#Cc1cnn(-c2nn3c(c2Cl)CCCC3)c1NC(=O)CCCCl [Control Agent 1.37] | 3 (3: 30% to less than 40%) | 3 (3: 30% to less than 40%) | 2 (2: 20% to less than 30%) | 4 (4: 40% to less than 50%) | 1 (1: 10% to less than 20%) | 2 (2: 20% to less than 30%) | 2 (2: 20% to less than 30%) | 2 (2: 20% to less than 30%) | 5 (5: 50% to less than 60%) | 6 (6: 60% to less than 70%) | 4 (4: 40% to less than 50%) | 5 (5: 50% to less than 60%) | 3 (3: 30% to less than 40%) | 4 (4: 40% to less than 50%) | 6 (6: 60% to less than 70%) | 7 (7: 70% to less than 80%) | 4 (4: 40% to less than 50%) | 5 (5: 50% to less than 60%) | 3 (3: 30% to less than 40%) | 4 (4: 40% to less than 50%) | herbicidal efficacy (growth inhibition rate level), Digitaria ciliaris (Digitaria ciliaris [7]): 2 (2: 20% to less than 30%); herbicidal efficacy (growth inhibition rate level), Galinsoga parviflora (Galinsoga parviflora): 4 (4: 40% to less than 50%) |
| CC(=O)Nc1c([N+](=O)[O-])cnn1-c1nn2c(c1Cl)CCCC2 [Control Agent 2.17] | 1 (1: 10% to less than 20%) | 1 (1: 10% to less than 20%) | 1 (1: 10% to less than 20%) | 2 (2: 20% to less than 30%) | 0 (0 (exponent): 0% to less than 10% (growth inhibition rate)) | 1 (1: 10% to less than 20%) | 0 (0 (exponent): 0% to less than 10% (growth inhibition rate)) | 1 (1: 10% to less than 20%) | 4 (4: 40% to less than 50%) | 5 (5: 50% to less than 60%) | 0 (0 (exponent): 0% to less than 10% (growth inhibition rate)) | 1 (1: 10% to less than 20%) | 0 (0 (exponent): 0% to less than 10% (growth inhibition rate)) | 1 (1: 10% to less than 20%) | 6 (6: 60% to less than 70%) | 6 (6: 60% to less than 70%) | 0 (0 (exponent): 0% to less than 10% (growth inhibition rate)) | 1 (1: 10% to less than 20%) | 2 (2: 20% to less than 30%) | 2 (2: 20% to less than 30%) | herbicidal efficacy (growth inhibition rate level), Digitaria ciliaris (Digitaria ciliaris [7]): 0 (0 (exponent): 0% to less than 10% (growth inhibition rate)); herbicidal efficacy (growth inhibition rate level), Galinsoga parviflora (Galinsoga parviflora): 5 (5: 50% to less than 60%) |
